Data published in patent US12061202B2, “Compositions and methods for bioluminescent detection using multifunctional probes” (Promega Corporation, priority 2019, dated 2024).

How the values were obtained:
Type in all cases: cell-based
Raji cells [1] = test: Cell viability after labeling, CellTiter-Glo, Raji
Method: (§1) For assay optimization, labeling the cells at different probe concentrations and setting up cell titration curves can be advantageous. To evaluate effect of labeling on cell viability, different viability/toxicity assays can also be used. Here, an example of assay optimization is provided using Raji and K562 cells. […] However, labeling efficiency, toxicity, assay linearity, and assay window differed depending on the cell line and labeling conditions. […] Labeling K562 at 2 μM extended linear range of the assay up to 20,000 cells/well, however assay window decreased from 18-fold to 7-8-fold.
(§2) No labeling control was included for toxicity evaluation. After labeling, the cells were resuspended in appropriate medium, counted, and plated into wells of a 96-well plate at two-fold serial dilution starting from 20,000 cells/well. The Detection Reagents with or without digitonin were added as described above, and the plates were placed into a tissue culture incubator. After incubation, Nano-Glo® Luciferase Assay substrate was added to the samples, and luminescence was read. After reading luminescence, an equal volume of CellTiter-Glo was added to the samples to measure changes in viability. […] The linear range of the assay is underlined. Dead/Live is the ratio between luminescence signal of dead and live cells calculated after assay background subtraction (media control).

SKBR3 = test: Release of labeled proteins from dead cells, NanoBiT bioluminescence, SKBR3; conditions: final labeling probe concentration 10 μM
Method: (§3) Next, the bifunctional labeling probe was thawed at room temperature and mixed. The probe was generally contained in DMSO. The bifunctional probe was added to the cells at a final concentration between about 0.5-10 μM. The cells were then mixed by gently pipetting and incubated for 30 minutes at 37° C. To inactivate unreactive free labeling probe, a 10× volume of pre-warmed (37° C.) cell culture medium containing 10% FBS was added, and the cells incubated for additional 5 minutes. The labeled cells were then spun down, and the labeling media removed. The cells were resuspended in fresh cell culture media at the concentration required for the experiment.
(§4) In some embodiments, one or more components of the NanoBiT® system can be used for measuring cell death of pre-labeled cell population in mixed cell cultures. […]
(§5) Labeled cells (1,250-10,000 cells/well) were plated with experimental treatment conditions (e.g., drug, effector cells, etc.) in 50 μl of appropriate medium. Wells without cells were included as negative controls to determine background luminescence in the media. […]
(§6) About 50 μl of prepared Detection Reagent was added into all assay wells and negative (media) control wells. […] About 25 μL of prepared substrate was added to the assay wells, mixed, and luminescence was read.

various cell types = test: Labeling of various cell types with bifunctional probe, NanoBiT detection (FIG. 2B)
From the text: As shown in FIGS. 2A-2B, a variety of cells were labeled with the bifunctional probes of the present disclosure. FIG. 2A is a representative schematic diagram of a method used to label the various target cells identified in FIG. 2B. […] Robust luminescence was detected from the labeled proteins released after cell death, which were quantified using the NanoBiT® system, while little luminescence was detected in the media and live cells.
In accordance with these experiments, the various cell types tested were collected by centrifugation for 5 mins at 300 g followed by aspiration of the media and resuspension in PBS. The bifunctional probe was then added to the media and allowed to incubate for 30 mins at 37° C. Pre-warmed (37° C.) complete media containing 10% serum was then added to the cells and incubated for 5 mins at 37° C. The labeled cells were then collected by centrifugation for 5 mins at 300 g and excess media was removed, and the labeled cells were then resuspended in the desired media. NanoBiT® detection reagents were then added to the labeled cells and allowed to incubate for 30 mins at 37° C. prior to reading luminescence (RLUs).

K562 cells [2] = test: Release of labeled proteins from dead cells, NanoBiT bioluminescence (HaloTag-SmBiT/HaloTag-LgBiT), K562; conditions: for Dead/Live at 5,000 cells/well: final labeling probe concentration 5 μM; for Dead, RLUs: dead (digitonin treated) cells; for Live, RLUs: live cells; for Dead/Live: ratio after background subtraction
Method: as §3
(§7) In some embodiments, one or more components of the NanoBiT® system can be used for measuring cell death of pre-labeled cell population in mixed cell cultures. Here, an exemplary protocol is described for using this assay in 96-well plates in […]: 50 μl of sample+50 μl of Detection Reagent+25 μl of Nano-Glo® Luciferase Assay substrate.
(§8) Labeled cells (1,250-10,000 cells/well) were plated with experimental treatment conditions (e.g., drug, effector cells, etc.) in 50 μl of appropriate medium. Wells without cells were included as negative controls to determine background luminescence in the media. Separate wells were included with pre-labeled cells for determining maximum release of labeled proteins. Detection Reagents were assembled: about 1 ml of Detection Reagent buffer (2×) was combined with about 1.25 μl of Detection Component 1 and 1.25 μl of Detection Component 2. If maximum release determination was needed, the required amount of prepared Detection Reagent (50 μl/per sample) was removed, and digitonin at 0.12 mg/ml concentration added (for example, add 6 μl to 1 ml of Detection Reagent).
(§9) About 50 μl of prepared Detection Reagent was added into all assay wells and negative (media) control wells. Detection Reagent with Digitonin was added into control wells for determining maximum release. The cells were placed into a tissue culture incubator, and the treatment continued up to 24 hours. Nano-Glo® Luciferase Assay Substrate was prepared by diluting (1:50) substrate into assay medium. The assay plate was then removed from the tissue culture incubator and equilibrated to room temperature for about 5 mins. About 25 μL of prepared substrate was added to the assay wells, mixed, and luminescence was read.
as §2

K562 cells [3] = test: Cell viability after labeling, CellTiter-Glo, K562; conditions: labeled at 2 and 5 μM
Method: as §1, §2

A431 = test: Release of labeled proteins from dead cells, NanoBiT bioluminescence, A431; conditions: final labeling probe concentration 10 μM
Method: as §3, §4, §5, §6

HCT116 = test: Release of labeled proteins from dead cells, NanoBiT bioluminescence, HCT116; conditions: final labeling probe concentration 10 μM
Method: as §3, §4, §5, §6

Raji cells [4] = test: Release of labeled proteins from dead cells, NanoBiT bioluminescence, Raji; conditions: for Dead/Live at 5,000 cells/well: final labeling probe concentration 2 μM; for Dead, RLUs: dead (digitonin treated) cells; for Live, RLUs: live cells; for Dead/Live: ratio after background subtraction
Method: as §3, §7, §8, §9, §2

## O=C(NCCOCCOCCCCCCCl)c1ccc(C(=O)ON2C(=O)CCC2=O)cc1 [Labeling Probe, 2,5-dioxopyrrolidin-1-yl 4-((2-(2-((6-chlorohexyl)oxy)ethoxy)ethyl)carbamoyl)benzoate]
Raji cells [1]; labeling concentration 1 μM
  effect on cell viability: without significant effect on cell viability
Raji cells [1]; labeling with 5 μM
  decrease in cell viability as measured by CellTiter-Glo: more than 40%
SKBR3; at 4 h
  Dead/Live at 5,000 cells/well: 10.1
SKBR3; at 24 h
  Dead/Live at 5,000 cells/well: 10.9
Various cell types
  uptake of probe by cells: successfully taken up by every cell tested
K562 cells [2]; at 4 h
  Dead/Live at 5,000 cells/well: 18.3
K562 cells [2]; at 24 h
  Dead/Live at 5,000 cells/well: 19.0
K562 cells [2]; labeling at 2 μM
  assay window: 7-8 fold
K562 cells [2]; labeling at 5 μM
  assay window: 18 fold
K562 cells [2]; probe 2 μM, 1,250 cells/well
  Dead, RLUs: 69,663 RLUs
  Live, RLUs: 37,113 RLUs
  Dead/Live: 5.0
K562 cells [2]; probe 2 μM, 2,500 cells/well
  Dead, RLUs: 88,448 RLUs
  Live, RLUs: 40,600 RLUs
  Dead/Live: 5.2
K562 cells [2]; probe 2 μM, 5,000 cells/well
  Dead, RLUs: 114,346 RLUs
  Live, RLUs: 42,059 RLUs
  Dead/Live: 7.6
K562 cells [2]; probe 2 μM, 10,000 cells/well
  Dead, RLUs: 154,018 RLUs
  Live, RLUs: 47,861 RLUs
  Dead/Live: 7.3
K562 cells [2]; probe 2 μM, 20,000 cells/well
  Dead, RLUs: 192,283 RLUs
  Live, RLUs: 51,528 RLUs
  Dead/Live: 7.9
K562 cells [2]; probe 5 μM, 1,250 cells/well
  Dead, RLUs: 236,022 RLUs
  Live, RLUs: 43,298 RLUs
  Dead/Live: 18.1
K562 cells [2]; probe 5 μM, 2,500 cells/well
  Dead, RLUs: 373,598 RLUs
  Live, RLUs: 50,284 RLUs
  Dead/Live: 18.7
K562 cells [2]; probe 5 μM, 5,000 cells/well
  Dead, RLUs: 591,060 RLUs
  Live, RLUs: 60,873 RLUs
  Dead/Live: 19.4
K562 cells [2]; probe 5 μM, 10,000 cells/well
  Dead, RLUs: 620,751 RLUs
  Live, RLUs: 76,596 RLUs
  Dead/Live: 13.1
K562 cells [2]; probe 5 μM, 20,000 cells/well
  Dead, RLUs: 477,185 RLUs
  Live, RLUs: 78,093 RLUs
  Dead/Live: 9.4
K562 cells [2]; within the linear range of the assay
  increase in light output in live cells as compared to media control: less than 2 fold
K562 cells [3]
  cell viability measured with CellTiter-Glo: no decrease in cell viability
A431; at 4 h
  Dead/Live at 5,000 cells/well: 7.4
A431; at 24 h
  Dead/Live at 5,000 cells/well: 6.2
HCT116; at 4 h
  Dead/Live at 5,000 cells/well: 8.1
HCT116; at 24 h
  Dead/Live at 5,000 cells/well: 6.7
Raji cells [4]; at 4 h
  Dead/Live at 5,000 cells/well: 35.4
Raji cells [4]; at 24 h
  Dead/Live at 5,000 cells/well: 21.7
Raji cells [4]; labeling concentration 1 μM
  assay window: > 5 fold
Raji cells [4]; labeling with 5 μM
  increase in luminescence signal in live cells from media only control: > 2 fold
Raji cells [4]; probe 1 μM, 1,250 cells/well
  Dead, RLUs: 112,901 RLUs
  Live, RLUs: 71,937 RLUs
  Dead/Live: 6.0
Raji cells [4]; probe 1 μM, 2,500 cells/well
  Dead, RLUs: 164,403 RLUs
  Live, RLUs: 78,455 RLUs
  Dead/Live: 6.8
Raji cells [4]; probe 1 μM, 5,000 cells/well
  Dead, RLUs: 257,879 RLUs
  Live, RLUs: 88,466 RLUs
  Dead/Live: 7.9
Raji cells [4]; probe 1 μM, 10,000 cells/well
  Dead, RLUs: 403,731 RLUs
  Live, RLUs: 107,531 RLUs
  Dead/Live: 7.8
Raji cells [4]; probe 1 μM, 20,000 cells/well
  Dead, RLUs: 731,355 RLUs
  Live, RLUs: 134,572 RLUs
  Dead/Live: 9.4
Raji cells [4]; probe 5 μM, 1,250 cells/well
  Live, RLUs: 210,695 RLUs
  Dead/Live: 7.7
Raji cells [4]; probe 5 μM, 2,500 cells/well
  Dead, RLUs: 2,179,562 RLUs
  Live, RLUs: 317,452 RLUs
  Dead/Live: 8.2
Raji cells [4]; probe 5 μM, 5,000 cells/well
  Dead, RLUs: 3,826,655 RLUs
  Live, RLUs: 508,581 RLUs
  Dead/Live: 8.4
Raji cells [4]; probe 5 μM, 10,000 cells/well
  Dead, RLUs: 4,916,472 RLUs
  Live, RLUs: 672,232 RLUs
  Dead/Live: 7.9
Raji cells [4]; probe 5 μM, 20,000 cells/well
  Dead, RLUs: 3,314,700 RLUs
  Live, RLUs: 645,489 RLUs
  Dead/Live: 5.6
